Measured values as given in paper PMC5207512, “Inhibition of Helicobacter pylori and Its Associated Urease by Palmatine: Investigation on the Potential Mechanism” (PLoS ONE, 2017).
Several values for one entry are separate records, joined by “and”; a condition that tells them apart may be missing. Equal values may be shown once.

Legend:
H. pylori urease (HPU) = target: T1, H. pylori urease (HPU) (Helicobacter pylori, UniProt P69996); assay: Urease inhibition test (modified Berthelot method); type: biochemical; settings: replicates
T1 construct: HPU was prepared as previously described; made in house
T1 sequence (P14916 whole entry): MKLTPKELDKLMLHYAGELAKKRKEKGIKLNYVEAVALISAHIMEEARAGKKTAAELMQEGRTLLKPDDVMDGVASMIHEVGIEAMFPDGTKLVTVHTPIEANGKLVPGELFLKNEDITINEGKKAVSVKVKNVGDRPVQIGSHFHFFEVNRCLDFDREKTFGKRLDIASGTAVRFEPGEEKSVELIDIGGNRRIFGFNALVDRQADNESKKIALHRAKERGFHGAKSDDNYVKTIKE
T1 sequence (P69996 whole entry): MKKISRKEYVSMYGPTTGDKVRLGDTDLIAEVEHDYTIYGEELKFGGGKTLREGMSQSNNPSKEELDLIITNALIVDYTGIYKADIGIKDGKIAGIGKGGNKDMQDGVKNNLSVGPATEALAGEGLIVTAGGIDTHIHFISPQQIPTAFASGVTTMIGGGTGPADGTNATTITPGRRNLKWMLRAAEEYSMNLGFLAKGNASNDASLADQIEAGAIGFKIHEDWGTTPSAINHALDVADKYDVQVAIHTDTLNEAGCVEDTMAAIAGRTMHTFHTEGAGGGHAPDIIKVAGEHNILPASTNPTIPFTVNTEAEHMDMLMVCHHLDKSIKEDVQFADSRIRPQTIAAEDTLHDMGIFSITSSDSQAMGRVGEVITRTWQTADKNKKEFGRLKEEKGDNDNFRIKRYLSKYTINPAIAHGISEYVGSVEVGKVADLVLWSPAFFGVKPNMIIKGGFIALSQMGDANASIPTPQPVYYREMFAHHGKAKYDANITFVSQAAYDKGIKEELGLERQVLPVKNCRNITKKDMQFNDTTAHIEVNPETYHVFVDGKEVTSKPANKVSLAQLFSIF
Protocol: (§1) HPU was prepared as previously described. The standard urease assay mixture included 150 mM urea in 20 mM HEPES buffer (pH 7.5). After addition of small aliquots of enzyme-containing solution of urease, the assay ran for 20 min. The enzymatic activity was evaluated spectrophotometrically by detecting the ammonia concentration at 595 nm according to the modified Berthelot (phenol-hypochlorite) method. Urease activity was estimated with JBU as a standard, the specific activity of HPU was determined to be 17.0 U/mg. One unit of urease activity was defined as 1 μmol of ammonia released per min at 25°C. The amount of protein was determined by commercial Bradford Protein Assay Kit with BSA as a standard. The amount of ammonia released was decided from a standard curve. The activity of uninhibited urease was defined as the control activity of 100%.
(§2) Reaction mixtures comprising 0.25 mg/mL HPU or JBU and different concentrations of Pal or AHA at the volume ratio of 1:1, were incubated at 37°C in 20 mM HEPES buffer (pH 7.5) in the absence of urea. The reactions were initiated by mixing the urease and the inhibitor. The preincubation mixture was withdrawn at 20 min and immediately transferred into the standard assay mixtures for urease residual activity determination. Inhibition rate (%) was calculated following the formula: I % = (1-activity with inhibitors/activity without inhibitors) × 100%. The IC50 was expressed as the concentration of inhibitor that decreased urease activity by 50% and calculated by plotting the percent of inhibition. The experiments were triply performed.

jack bean urease (JBU) = target: T2, jack bean urease (JBU) (Canavalia ensiformis, UniProt P07374); assay: Urease inhibition test (modified Berthelot method); type: biochemical
T2 construct: Urease from jack bean (Canavalia ensiformis, JBU); purchased Sigma-Aldrich (St Louis, MO, USA) type III (catalogue number not given)
T2 sequence (P07374 whole entry, looked up): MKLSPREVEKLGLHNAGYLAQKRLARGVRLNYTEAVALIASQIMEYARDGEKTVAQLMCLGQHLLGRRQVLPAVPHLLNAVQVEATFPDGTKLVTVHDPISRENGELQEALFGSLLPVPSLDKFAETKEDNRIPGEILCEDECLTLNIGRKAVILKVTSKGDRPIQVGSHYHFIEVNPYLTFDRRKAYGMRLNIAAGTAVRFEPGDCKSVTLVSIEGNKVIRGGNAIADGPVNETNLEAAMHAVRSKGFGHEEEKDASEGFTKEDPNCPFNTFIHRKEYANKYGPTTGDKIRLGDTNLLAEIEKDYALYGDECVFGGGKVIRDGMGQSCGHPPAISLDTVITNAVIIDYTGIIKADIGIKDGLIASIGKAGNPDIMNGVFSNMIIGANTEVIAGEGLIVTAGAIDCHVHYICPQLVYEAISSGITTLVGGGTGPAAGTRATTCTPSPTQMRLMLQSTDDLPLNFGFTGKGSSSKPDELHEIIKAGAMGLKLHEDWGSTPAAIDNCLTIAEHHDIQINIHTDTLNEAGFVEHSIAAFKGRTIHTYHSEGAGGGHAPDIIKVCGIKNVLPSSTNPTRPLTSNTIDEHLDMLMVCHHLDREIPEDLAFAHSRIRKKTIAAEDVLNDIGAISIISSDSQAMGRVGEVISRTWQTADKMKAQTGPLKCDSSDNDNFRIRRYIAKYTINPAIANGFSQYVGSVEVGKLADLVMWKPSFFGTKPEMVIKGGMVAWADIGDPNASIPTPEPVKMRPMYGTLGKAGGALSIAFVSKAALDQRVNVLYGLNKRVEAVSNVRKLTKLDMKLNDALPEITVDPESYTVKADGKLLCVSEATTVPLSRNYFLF
Protocol: as §1, §2

**Q.** With `COc1cc2c(cc1OC)-c1cc3ccc(OC)c(OC)c3c[n+]1CC2` [Pal, Palmatine] as the molecule, how does the remaining activity at 59.625 µM (H. pylori urease (HPU); read-out: Residual activity, Fig 2A HPU, Pal 0.059625 mM) read?
**A.** 88%

**Q.** And the remaining activity at 119.25 µM (H. pylori urease (HPU); read-out: Residual activity, Fig 2A HPU, Pal 0.11925 mM)?
**A.** 77.1%

**Q.** And the remaining activity at 238.5 µM (H. pylori urease (HPU); read-out: Residual activity, Fig 2A HPU, Pal 0.2385 mM)?
**A.** 66.8%

**Q.** What about the remaining activity at 477 µM (H. pylori urease (HPU); read-out: Residual activity, Fig 2A HPU, Pal 0.477 mM) of the same molecule?
**A.** 49.6%

**Q.** And the remaining activity at 954 µM (H. pylori urease (HPU); read-out: Residual activity, Fig 2A HPU, Pal 0.954 mM)?
**A.** 24.2%

**Q.** And the remaining activity at 7.55209 µM (H. pylori urease (HPU); read-out: Residual activity, Fig 2C HPU, head prints Pal 0.00755209 mM)?
**A.** 94.8%

**Q.** What about the remaining activity at 15.1042 µM (H. pylori urease (HPU); read-out: Residual activity, Fig 2C HPU, head prints Pal 0.0151042 mM) of the same molecule?
**A.** 92.1%

**Q.** And the remaining activity at 60.4167 µM (H. pylori urease (HPU); read-out: Residual activity, Fig 2C HPU, head prints Pal 0.0604167 mM)?
**A.** 56.1%

**Q.** What about the remaining activity at 120.833 µM (H. pylori urease (HPU); read-out: Residual activity, Fig 2C HPU, head prints Pal 0.120833 mM) of the same molecule?
**A.** 31%

**Q.** What about the remaining activity at 241.667 µM (H. pylori urease (HPU); read-out: Residual activity, Fig 2C HPU, head prints Pal 0.241667 mM) of the same molecule?
**A.** 23.2%

**Q.** And the IC50 (jack bean urease (JBU))?
**A.** 30 µM

**Q.** What about the Residual activity (jack bean urease (JBU); Fig 2B JBU, Pal 0.0149062 mM, replicates) of the same molecule?
**A.** 54.1182% and 57.7693%

**Q.** And the Residual activity (jack bean urease (JBU); Fig 2B JBU, Pal 0.0298125 mM, replicates)?
**A.** 50.3004% and 49.1799%

**Q.** And the Residual activity (jack bean urease (JBU); Fig 2B JBU, Pal 0.059625 mM, replicates)?
**A.** 40.1092% and 41.6437%

**Q.** What about the Residual activity (jack bean urease (JBU); Fig 2B JBU, Pal 0.11925 mM, replicates) of the same molecule?
**A.** 37.8863% and 32.26%

**Q.** What about the Residual activity (jack bean urease (JBU); Fig 2B JBU, Pal 0.2385 mM, replicates) of the same molecule?
**A.** 38.5515% and 35.644%

**Q.** And the Residual activity (jack bean urease (JBU); Fig 2B JBU, Pal 0.477 mM, replicates)?
**A.** 32.5751% and 31.4745%

**Q.** And the Residual activity (jack bean urease (JBU); Fig 2B JBU, Pal 0.954 mM, replicates)?
**A.** 26.1588% and 18.0767%

**Q.** What about the Residual activity (jack bean urease (JBU); Fig 2D JBU, head prints Pal 0.00188802 mM, replicates) of the same molecule?
**A.** 95.2237% and 88.9105%

**Q.** What about the Residual activity (jack bean urease (JBU); Fig 2D JBU, head prints Pal 0.00377605 mM, replicates) of the same molecule?
**A.** 91.7722% and 82.8804%

**Q.** And the Residual activity (jack bean urease (JBU); Fig 2D JBU, head prints Pal 0.00755209 mM, replicates)?
**A.** 77.2806% and 78.6217%

**Q.** And the Residual activity (jack bean urease (JBU); Fig 2D JBU, head prints Pal 0.0151042 mM, replicates)?
**A.** 56.6996% and 59.4273%

**Q.** And the Residual activity (jack bean urease (JBU); Fig 2D JBU, head prints Pal 0.0302084 mM, replicates)?
**A.** 37.3504% and 39.7719%

**Q.** What about the Residual activity (jack bean urease (JBU); Fig 2D JBU, head prints Pal 0.0604167 mM, replicates) of the same molecule?
**A.** 24.6949% and 22.6887%

**Q.** What about the Residual activity (jack bean urease (JBU); Fig 2D JBU, head prints Pal 0.120833 mM, replicates) of the same molecule?
**A.** 12.8879% and 13.7831%

**Q.** And the Residual activity (jack bean urease (JBU); Fig 2D JBU, head prints Pal 0.241667 mM, replicates)?
**A.** 10.3312% and 12.3028%

**Q.** What about the remaining activity at 14.9062 µM (jack bean urease (JBU); read-out: Residual activity, Fig 2B JBU, Pal 0.0149062 mM, replicates) of the same molecule?
**A.** 55.1%

**Q.** And the remaining activity at 29.8125 µM (jack bean urease (JBU); read-out: Residual activity, Fig 2B JBU, Pal 0.0298125 mM, replicates)?
**A.** 49%

**Q.** And the remaining activity at 59.625 µM (jack bean urease (JBU); read-out: Residual activity, Fig 2B JBU, Pal 0.059625 mM, replicates)?
**A.** 45.6%

**Q.** What about the remaining activity at 119.25 µM (jack bean urease (JBU); read-out: Residual activity, Fig 2B JBU, Pal 0.11925 mM, replicates) of the same molecule?
**A.** 38.6%

**Q.** What about the remaining activity at 238.5 µM (jack bean urease (JBU); read-out: Residual activity, Fig 2B JBU, Pal 0.2385 mM, replicates) of the same molecule?
**A.** 36.2%

**Q.** And the remaining activity at 477 µM (jack bean urease (JBU); read-out: Residual activity, Fig 2B JBU, Pal 0.477 mM, replicates)?
**A.** 25.7%

**Q.** And the remaining activity at 954 µM (jack bean urease (JBU); read-out: Residual activity, Fig 2B JBU, Pal 0.954 mM, replicates)?
**A.** 27.1%

**Q.** And the remaining activity at 1.88802 µM (jack bean urease (JBU); read-out: Residual activity, Fig 2D JBU, head prints Pal 0.00188802 mM, replicates)?
**A.** 94.8%

**Q.** What about the remaining activity at 3.77605 µM (jack bean urease (JBU); read-out: Residual activity, Fig 2D JBU, head prints Pal 0.00377605 mM, replicates) of the same molecule?
**A.** 88.2%

**Q.** And the remaining activity at 7.55209 µM (jack bean urease (JBU); read-out: Residual activity, Fig 2D JBU, head prints Pal 0.00755209 mM, replicates)?
**A.** 75.2%

**Q.** What about the remaining activity at 15.1042 µM (jack bean urease (JBU); read-out: Residual activity, Fig 2D JBU, head prints Pal 0.0151042 mM, replicates) of the same molecule?
**A.** 55.4%

**Q.** What about the remaining activity at 30.2084 µM (jack bean urease (JBU); read-out: Residual activity, Fig 2D JBU, head prints Pal 0.0302084 mM, replicates) of the same molecule?
**A.** 36.9%

**Q.** What about the remaining activity at 60.4167 µM (jack bean urease (JBU); read-out: Residual activity, Fig 2D JBU, head prints Pal 0.0604167 mM, replicates) of the same molecule?
**A.** 25.4%

**Q.** And the remaining activity at 120.833 µM (jack bean urease (JBU); read-out: Residual activity, Fig 2D JBU, head prints Pal 0.120833 mM, replicates)?
**A.** 15.7%

**Q.** And the remaining activity at 241.667 µM (jack bean urease (JBU); read-out: Residual activity, Fig 2D JBU, head prints Pal 0.241667 mM, replicates)?
**A.** 11.3%
